The record followed here is US5043335A, “Indolocarbazoles and the use thereof” (Godecke Aktiengesellschaft, priority 1989, dated 1991).

For one assay, the target named is protein kinase C. In words: Inhibition of protein kinase C activated with phosphatidylserine and diacylglycerol (in vitro enzyme assay). In kind it is biochemical. The following applies: for IC50: activated with phosphatidylserine and diacylglycerol, read-out: Inhibiton (IC50) C-Kinase.
The target in assay [1] is T1, cGMP-dependent protein kinase (Bos taurus, UniProt P00516).
T1 construct: The enzyme was obtained from bovine lung tissue and purified; from tissue; host or cells: bovine lung
T1 sequence (P00516 1-671): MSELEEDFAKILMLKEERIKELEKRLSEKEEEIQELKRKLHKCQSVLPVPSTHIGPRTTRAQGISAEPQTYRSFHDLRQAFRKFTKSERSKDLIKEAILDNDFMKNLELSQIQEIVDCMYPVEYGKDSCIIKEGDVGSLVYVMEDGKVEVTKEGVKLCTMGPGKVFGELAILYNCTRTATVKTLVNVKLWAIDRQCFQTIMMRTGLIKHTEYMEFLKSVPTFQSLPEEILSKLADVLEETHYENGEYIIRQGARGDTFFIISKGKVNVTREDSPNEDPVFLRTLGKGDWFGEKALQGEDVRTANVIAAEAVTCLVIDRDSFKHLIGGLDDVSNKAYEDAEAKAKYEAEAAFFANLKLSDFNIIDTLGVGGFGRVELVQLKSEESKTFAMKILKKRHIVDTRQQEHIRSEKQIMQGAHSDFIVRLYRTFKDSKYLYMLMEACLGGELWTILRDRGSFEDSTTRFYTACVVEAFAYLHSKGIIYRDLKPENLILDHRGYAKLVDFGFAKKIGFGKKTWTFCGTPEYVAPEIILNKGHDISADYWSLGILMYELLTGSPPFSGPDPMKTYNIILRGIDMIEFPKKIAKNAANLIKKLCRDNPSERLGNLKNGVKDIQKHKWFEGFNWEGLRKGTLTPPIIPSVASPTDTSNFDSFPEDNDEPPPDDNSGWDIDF
In words: cGMP-dependent protein kinase (G kinase) test, 32P-phosphate incorporation into histone. In kind it is biochemical, bovine. The protocol:
(§1) The determination the inhibition of the cAMP- and of the cGMP-dependent protein kinase took place according to the test description below.
cGMP-dependent protein kinase: The enzyme was obtained from bovine lung tissue and purified and its activity determined via the incorporation of phosphorus 32-labeled phosphate into histone. The following components are contained in a test batch of 200 μL: 20 mM Tris-HCl (pH 7.4), 5 mM magnesium chloride, 1 mM DTT, 10 μM ATP, […], 40 μg BSA, 2% glycerol, as well as 10 μg histone II-A and possibly the substance to be investigated. […] After incubating for 5 minutes at 30° C., the reaction is stopped by the addition of 10% trichloroacetic acid and the samples then filtered off over a nitrocellulose filter. The phosphate incorporation is determined by Cerenkov counting in a scintillation counter and the percentage inhibition calculated therefrom.

Assay [2] deals with T2, cAMP-dependent protein kinase (catalytic subunit) (Homo sapiens, UniProt P17612).
T2 construct: purchased
The experiment in a line: cAMP-dependent protein kinase (A kinase) test, 32P-phosphate incorporation into histone. It is filed as biochemical. The method, then:
as §1
cAMP-dependent protein kinase: The measurement of the activity takes place with the commercially available catalytic subunits of the enzyme. The incorporation of phosphorus 32-labeled phosphate into histone is thereby measured. A reaction batch of 200 μL contains the following components: 50 mM PIPES-NaOH (pH 7.5), 10 mM magnesium chloride, 1 mM DTT, 40 μM ATP, as well as 50 μg histone H-2B. The test is carried out as in the case of G kinase. The reaction is thereby started by the addition of 6 units of the catalytic subunit of the cAMP-dependent protein kinase.

Each structure is given as a SMILES string.

By IC50 is commonly meant the concentration needed to halve the response being measured. With `O=C1NC(=O)c2c1c1c3ccccc3n3c1c1c2c2ccccc2n1C1CCC3O1` [I, 9,10,11,12-tetrahydro-9,l2-epoxy-1H-diindolo[1,2,3-fg: 3',2',1',kl]pyrrolo[3,4-i][1,6]benzodiazocine-1,3(2H)-dione], the IC50 at protein kinase C came out at 28 nM; in assay [1], 520 nM; in assay [2] it was 5500 nM. Besides, in assay [1] (G-kinase versus C-kinase), the “Ratio IC50 kinase / IC50 C-Kinase, G/C” value stood at 19. Moreover, the “Ratio IC50 kinase / IC50 C-Kinase, A/C” value in assay [2] (A-kinase versus C-kinase) was 196.

With `O=C1c2c(c3c4ccccc4n4c3c3c2c2ccccc2n3C2CCC4O2)C(=O)N1Cc1ccccc1` [III], the IC50 on protein kinase C is greater than 10000 nM. Also, the “inhibition of protein kinase C at a single concentration” value with protein kinase C (concentration of 10^-5 M, same conditions of the in vitro enzyme assay) was “does not display a significant inhibition”.
